From US10035790B2, “RORγ modulators” (BRISTOL-MYERS SQUIBB COMPANY, priority 2012, dated 2018)

Molecular target: T1, ligand binding domain of human RORγ (A262-S507) (Homo sapiens, UniProt P51449)
T1 construct: made in house; host or cells: E. coli
T1 sequence (P51449 262-507): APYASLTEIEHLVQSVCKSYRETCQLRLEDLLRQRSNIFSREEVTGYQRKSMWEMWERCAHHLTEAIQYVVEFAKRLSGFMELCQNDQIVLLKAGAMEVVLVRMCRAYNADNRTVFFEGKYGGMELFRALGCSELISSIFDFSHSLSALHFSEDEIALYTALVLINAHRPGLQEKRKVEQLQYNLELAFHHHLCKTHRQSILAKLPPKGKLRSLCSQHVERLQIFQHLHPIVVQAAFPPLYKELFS
Assay: General RORγ SPA binding assay (competition with [3H]25-hydroxycholesterol)
Details: RORγ SPA binding assay, inhibition of [3H]25-hydroxycholesterol binding; read-out: IC50
Summary of the method: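 Step one: compound meets 50 nM nickel-purified, His-tagged protein from E. coli for 15 min at room temperature (PBS, 0.5% fatty acid free BSA). Step two: radioligand is added for another 15 min. Step three: SPA beads are added for 30 min before scintillation reading and IC50 fitting.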

IC50 [nM]	SMILES
5.1	C/C(=N\Oc1ccnc(Cl)c1)c1cnc(C)nc1C1CCN(C(=O)Cc2c(F)cccc2F)CC1 [Compound B15, (E)-1-(4-(5-(1-(((2-chloropyridin-4-yl)oxy)imino)ethyl)-2-methylpyrimidin-4-yl)piperidin-1-yl)-2-(2,6-difluorophenyl)ethanone]
5.9	C/C(=N\Oc1cccc(F)c1)c1cnc(C)nc1C1CCN(C(=O)Cc2c(F)cccc2F)CC1 [Compound B16, (E)-2-(2,6-difluorophenyl)-1-(4-(5-(1-((3-fluorophenoxy)imino)ethyl)-2-methylpyrimidin-4-yl)piperidin-1-yl)ethanone]
9.3	C/C(=N\Oc1cc(F)ccc1C)c1cnc(C)nc1C1CCN(C(=O)Cc2c(F)cccc2F)CC1 [Compound B17, (E)-2-(2,6-difluorophenyl)-1-(4-(5-(1-((5-fluoro-2-methylphenoxy)imino)ethyl)-2-methylpyrimidin-4-yl)piperidin-1-yl)ethanone]
11.2	C/C(=N\Oc1cc(C)ccc1C)c1cnc(C)nc1C1CCN(C(=O)Cc2c(F)cccc2F)CC1 [Compound B18, (E)-2-(2,6-difluorophenyl)-1-(4-(5-(1-((2,5-dimethylphenoxy)imino)ethyl)-2-methylpyrimidin-4-yl)piperidin-1-yl)ethanone]
13.9	C/C(=N\Oc1cccc(C(F)(F)F)n1)c1cnc(C)nc1C1CCN(C(=O)Cc2c(F)cccc2F)CC1 [Compound B19, (E)-2-(2,6-difluorophenyl)-1-(4-(2-methyl-5-(1-(((6-(trifluoromethyl)pyridin-2-yl)oxy)imino)ethyl)pyrimidin-4-yl)piperidin-1-yl)ethanone]
15.8	C/C(=N\Oc1ccnc(C(F)(F)F)n1)c1cnc(C)nc1C1CCN(C(=O)Cc2c(F)cccc2F)CC1 [Compound B20, (E)-2-(2,6-difluorophenyl)-1-(4-(2-methyl-5-(1-(((2-(trifluoromethyl)pyrimidin-4-yl)oxy)imino)ethyl)pyrimidin-4-yl)piperidin-1-yl)ethanone]
23.7	COc1cccc(O/N=C(\C)c2cnc(C)nc2C2CCN(C(=O)Cc3c(F)cccc3F)CC2)c1 [Compound B21, (E)-2-(2,6-difluorophenyl)-1-(4-(5-(1-((3-methoxyphenoxy)imino)ethyl)-2-methylpyrimidin-4-yl)piperidin-1-yl)ethanone]
84	C/C(=N\Oc1cccc(C)c1C)c1cnc(C)nc1C1CCN(C(=O)Cc2c(F)cccc2F)CC1 [Compound B22, (E)-2-(2,6-difluorophenyl)-1-(4-(5-(1-((2,3-dimethylphenoxy)imino)ethyl)-2-methylpyrimidin-4-yl)piperidin-1-yl)ethanone]
8.4	Cc1ncc(/C(CO)=N/Oc2ccnc(C(F)(F)F)c2)c(C2CCN(C(=O)Cc3c(F)cccc3F)CC2)n1 [Compound B23, (1Z)-1-(4-{1-[(2,6-Difluorophenyl)acetyl]piperidin-4-yl}-2-methylpyrimidin-5-yl)-2-hydroxyethanone O-[2-(trifluoromethyl)pyridin-4-yl]oxime]
8.7	Cc1ncc(C(CF)=NOc2ccnc(C(F)(F)F)c2)c(C2CCN(C(=O)Cc3c(F)cccc3F)CC2)n1 [Compound B24, (1Z)-1-(4-{1-[(2,6-Difluorophenyl)acetyl]piperidin-4-yl}-2-methylpyrimidin-5-yl)-2-fluoroethanone 0-[2-(trifluoromethyl)pyridin-4-yl]oxime]
11.2	Cc1ncc(/C(CO)=N/Oc2ccnc(C(F)(F)F)n2)c(C2CCN(C(=O)Cc3c(F)cccc3F)CC2)n1 [Compound B25, (Z)-2-(2,6-difluorophenyl)-1-(4-(5-(2-hydroxy-1-(((2-(trifluoromethyl)pyrimidin-4-yl)oxy)imino)ethyl)-2-methylpyrimidin-4-yl)piperidin-1-yl)ethanone]
95	Cc1ncc(/C(CO)=N\Oc2ccnc(C(F)(F)F)n2)c(C2CCN(C(=O)Cc3c(F)cccc3F)CC2)n1 [Compound B26, (E)-2-(2,6-difluorophenyl)-1-(4-(5-(2-hydroxy-1-(((2-(trifluoromethyl)pyrimidin-4-yl)oxy)imino)ethyl)-2-methylpyrimidin-4-yl)piperidin-1-yl)ethanone]
35.8	Cc1ncc(/C(CF)=N/Oc2ccnc(C(F)(F)F)n2)c(C2CCN(C(=O)Cc3c(F)cccc3F)CC2)n1 [Compound B27, (Z)-2-(2,6-difluorophenyl)-1-(4-(5-(2-fluoro-1-(((2-(trifluoromethyl)pyrimidin-4-yl)oxy)imino)ethyl)-2-methylpyrimidin-4-yl)piperidin-1-yl)ethanone]
696	Cc1ncc(/C(CO)=N/Oc2cccc(C(F)(F)F)c2)c(C2CCN(C(=O)Cc3c(F)cccc3F)CC2)n1 [Compound B28, (Z)-2-(2,6-difluorophenyl)-1-(4-(5-(2-hydroxy-1-((3-(trifluoromethyl)phenoxy)imino)ethyl)-2-methylpyrimidin-4-yl)piperidin-1-yl)ethanone]
9.7	Cc1ncc(/C=N/Oc2cccc(C(F)(F)F)c2)c(C2CCN(C(=O)Cc3c(F)cccc3F)CC2)n1 [Compound B30, (E)-4-(1-(2-(2,6-Difluorophenyl)acetyl)piperidin-4-yl)-2-methylpyrimidine-5-carbaldehyde O-3-(trifluoromethyl)phenyl oxime]
3.4	Cc1nc(C)c(C=NOc2cccc(C(F)(F)F)c2)c(C2CCN(C(=O)Cc3c(F)cccc3F)CC2)n1 [Compound B31, 4-{1-[(2,6-Difluorophenyl)acetyl]piperidin-4-yl}-2,6-dimethylpyrimidine-5-carbaldehyde O-[3-(trifluoromethyl)phenyl]oxime]
15.3	Cc1ncc(/C(=N/Oc2ccnc(C(F)(F)F)c2)C(F)F)c(C2CCN(C(=O)Cc3c(F)cccc3F)CC2)n1 [Compound B32, (1Z)-1-(4-{1-[(2,6-Difluorophenyl)acetyl]piperidin-4-yl}-2-methylpyrimidin-5-yl)-2,2-difluoroethanone O-[2-(trifluoromethyl)pyridin-4-yl]oxime]
36.7	Cc1ncc(/C=N/Oc2cccc(C(F)(F)F)c2)c(C2CCN(C(=O)Cc3c(F)cccc3F)CC2(F)F)n1 (stereo not drawn) [Compound B33, (E)-4-(1-(2-(2,6-Difluorophenyl)acetyl)-3,3-difluoropiperidin-4-yl)-2-methylpyrimidine-5-carbaldehyde O-3-(trifluoromethyl)phenyl oxime]
12.5	C/C(=N\Oc1ccnc(C(F)(F)F)c1)c1cnc(C)nc1C1CCN(C(=O)Cc2c(F)cccc2F)CC1(F)F (stereo not drawn) [Compound B34, (E)-1-(3,3-Difluoro-4-(2-methyl-5-(1-(2-(trifluoromethyl)pyridin-4-yloxyimino)ethyl)pyrimidin-4-yl)piperidin-1-yl)-2-(2,6-difluorophenyl)ethanone]
14.2	Cc1ncc(/C(CF)=N/Oc2ccnc(C(F)(F)F)n2)c(C2CCN(C(=O)Cc3c(F)cccc3F)CC2(F)F)n1 (stereo not drawn) [Compound B35, (Z)-1-(3,3-Difluoro-4-(5-(2-fluoro-1-(2-(trifluoromethyl)pyrimidin-4-yloxyimino)ethyl)-2-methylpyrimidin-4-yl)piperidin-1-yl)-2-(2,6-difluorophenyl)ethanone]
158	C/C(=N\Oc1ccnc(C(F)(F)F)n1)c1cnc(C)nc1C1CCN(C(=O)Nc2c(F)cccc2F)CC1 [Compound B36, N-(2,6-Difluorophenyl)-4-{2-methyl-5-[(1E)-N-{[2-(trifluoromethyl)pyrimidin-4-yl]oxy}ethanimidoyl]pyrimidin-4-yl}piperidine-1-carboxamide]
